Measurements from patent publication US9102591B2, “Benzamides” (H. Lundbeck A/S, priority 2012, dated 2015).

What follows are molecules tested against P2X7 receptor (Homo sapiens (Human), UniProt Q99572) (assay: P2X7 FLIPR assay (BzATP-stimulated calcium fluorescence, antagonist IC50)). Settings: not given.
Assay type: cell-based
Procedure, shortened: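 Cells expressing P2X7 receptor (human, rat or mouse), plated 24 hours earlier in low-serum medium, loaded with Fluo-4 NW dye (30 min 37° C, 30 min room temperature).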

Sequence of P2X7 receptor (Q99572 whole entry): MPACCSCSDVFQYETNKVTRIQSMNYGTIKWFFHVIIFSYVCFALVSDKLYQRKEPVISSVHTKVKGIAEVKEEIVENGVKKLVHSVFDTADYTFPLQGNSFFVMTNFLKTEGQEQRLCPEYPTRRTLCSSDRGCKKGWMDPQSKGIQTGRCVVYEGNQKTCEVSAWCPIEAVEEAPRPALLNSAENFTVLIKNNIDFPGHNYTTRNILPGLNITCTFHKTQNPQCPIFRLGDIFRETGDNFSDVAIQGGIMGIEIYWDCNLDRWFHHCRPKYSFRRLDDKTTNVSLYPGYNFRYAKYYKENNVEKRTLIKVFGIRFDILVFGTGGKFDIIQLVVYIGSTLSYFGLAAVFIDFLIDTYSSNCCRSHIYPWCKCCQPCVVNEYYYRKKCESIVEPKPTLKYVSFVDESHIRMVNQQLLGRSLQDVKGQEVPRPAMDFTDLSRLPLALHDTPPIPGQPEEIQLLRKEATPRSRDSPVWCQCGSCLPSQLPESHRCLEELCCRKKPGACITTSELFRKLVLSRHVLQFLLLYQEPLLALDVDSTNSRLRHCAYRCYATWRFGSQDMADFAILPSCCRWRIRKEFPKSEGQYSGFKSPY

SMILES	IC50 [nM]
Cc1c(C#N)cccc1C(=O)NCC1(c2ccc(C(F)(F)F)nc2)CCC(F)(F)CC1 [3-cyano-N-((4,4-difluoro-1-(6-(trifluoromethyl)pyridin-3-yl)cyclohexyl)methyl)-2-methylbenzamide]	45
Cc1ncc(C2(C(C)NC(=O)c3cccc(F)c3Cl)CCC(F)(F)CC2)cn1 (centres unmarked) [2-chloro-N-[1-[4,4-difluoro-1-(2-methylpyrimidin-5-yl)cyclohexyl]ethyl]-3-fluoro-benzamide]	2000
Cc1ncc(C(CNC(=O)c2cccc(Cl)c2Cl)C2CCOCC2)cn1 (single isomer, unassigned; (+)) [(+)2,3-dichloro-N-[2-(2-methylpyrimidin-5-yl)-2-tetrahydropy] [(+)2,3-dichloro-N-[2-(2-methylpyrimidin-5-yl)-2-tetrahydropyran-4-yl-ethyl]benzamide]	28
O=C(NCC1(c2ccc(Cl)cc2)CCOCC1)c1cc(F)cc(F)c1F [N-[4-(4-Chloro-phenyl)-tetrahydro-pyran-4-ylmethyl]-2,3,5-trifluoro-benzamide]	3600
O=C(NCC(CC1(C(F)(F)F)CC1)c1ccc(C(F)(F)F)nc1)c1ccccc1Cl (single isomer, unassigned; (-)) [(−)2-chloro-N-[3-[1-(trifluoromethyl)cyclopropyl]-2-[6-(trif] [(−)2-chloro-N-[3-[1-(trifluoromethyl)cyclopropyl]-2-[6-(trifluoromethyl)-3-pyridyl]propyl]benzamide]	32
CC(CNC(=O)c1ccccc1Cl)(CC1CC1)c1cnc(C(F)(F)F)nc1 (centres unmarked) [2-chloro-N-[3-cyclopropyl-2-methyl-2-[2-(trifluoromethyl)pyr] [2-chloro-N-[3-cyclopropyl-2-methyl-2-[2-(trifluoromethyl)pyrimidin-5-yl]propyl]benzamide]	21
Cc1ncc(C(CNC(=O)c2c(Cl)cccc2Cl)CC2CC2)cn1 (single isomer, unassigned; (+)) [(+)2,6-dichloro-N-[3-cyclopropyl-2-(2-methylpyrimidin-5-yl)p] [(+)2,6-dichloro-N-[3-cyclopropyl-2-(2-methylpyrimidin-5-yl)propyl]benzamide]	220
CS(=O)(=O)c1ccccc1C(=O)NCC1(c2ccc(C(F)(F)F)nc2)CCC(F)(F)CC1 [N-((4,4-difluoro-1-(6-(trifluoromethyl)pyridin-3-yl)cyclohexyl)methyl)-2-(methylsulfonyl)benzamide]	480
Cc1ncc(C(CNC(=O)c2ccccc2Cl)CC2(C(F)(F)F)CC2)cn1 (single isomer, unassigned; (+)) [(+)2-chloro-N-[2-(2-methylpyrimidin-5-yl)-3-[1-(trifluoromet] [(+)2-chloro-N-[2-(2-methylpyrimidin-5-yl)-3-[1-(trifluoromethyl)cyclopropyl]propyl]benzamide]	130
O=C(NCC(c1ccncc1)c1cnc(C(F)(F)F)nc1)c1ccccc1Cl (centres unmarked) [2-chloro-N-[2-(4-pyridyl)-2-[2-(trifluoromethyl)pyrimidin-5-yl]ethyl]benzamide]	30
Cc1ccccc1C(=O)NCC1(c2ccc(Cl)cc2)CCN(C)CC1 [N-[4-(4-Chloro-phenyl)-1-methyl-piperidin-4-ylmethyl]-2-methyl-benzamide]	60
O=C(NCC(CC1CC1)c1ccc(C(F)F)nc1)c1ccccc1Cl (single isomer, unassigned; (+)) [(+)2-chloro-N-[3-cyclopropyl-2-[6-(difluoromethyl)-3-pyridyl] [(+)2-chloro-N-[3-cyclopropyl-2-[6-(difluoromethyl)-3-pyridyl]propyl]benzamide]	640
Cc1ccc(Cl)c(C(=O)NCC2(c3ccc(C)nc3)CCOCC2)c1 [2-Chloro-5-methyl-N-[4-(6-methyl-pyridin-3-yl)-tetrahydro-pyran-4-ylmethyl]-benzamide]	3400

The next lines start with the values.

IC50 [nM]	SMILES
2.1	O=C(NCC(CC1(C(F)(F)F)CC1)c1ccc(C(F)(F)F)nc1)c1ccccc1Cl (centres unmarked) [2-chloro-N-[3-[1-(trifluoromethyl)cyclopropyl]-2-[6-(trifluo] [2-chloro-N-[3-[1-(trifluoromethyl)cyclopropyl]-2-[6-(trifluoromethyl)-3-pyridyl]propyl]benzamide]
7.1	Cc1ncc(C(CNC(=O)c2cccc(Cl)c2Cl)CC2(C(F)(F)F)CC2)cn1 (centres unmarked) [2,3-dichloro-N-[2-(2-methylpyrimidin-5-yl)-3-[1-(trifluorome] [2,3-dichloro-N-[2-(2-methylpyrimidin-5-yl)-3-[1-(trifluoromethyl)cyclopropyl]propyl]benzamide]
16	CC(CNC(=O)c1cccc(F)c1Cl)(CC1CC1)c1cnc(C(F)(F)F)nc1 (centres unmarked) [2-chloro-N-[3-cyclopropyl-2-methyl-2-[2-(trifluoromethyl)pyr] [2-chloro-N-[3-cyclopropyl-2-methyl-2-[2-(trifluoromethyl)pyrimidin-5-yl]propyl]-3-fluoro-benzamide]
5.7	O=C(NCC(c1cnc(C(F)(F)F)nc1)C1CCC(F)(F)CC1)c1cccc(Cl)c1Cl (single isomer, unassigned; (+)) [(+)2,3-dichloro-N-[2-(4,4-difluorocyclohexyl)-2-[2-(trifluor] [(+)2,3-dichloro-N-[2-(4,4-difluorocyclohexyl)-2-[2-(trifluoromethyl)pyrimidin-5-yl]ethyl]benzamide]
12	O=C(NCC(c1ccc(F)cc1)c1ccc(C(F)(F)F)nc1)c1cccc(Cl)c1Cl (single isomer, unassigned; (+)) [(+)2,3-dichloro-N-[2-(4-fluorophenyl)-2-[6-(trifluoromethyl)] [(+)2,3-dichloro-N-[2-(4-fluorophenyl)-2-[6-(trifluoromethyl)-3-pyridyl]ethyl]benzamide]
15	Cc1ncc(C2(C(C)NC(=O)c3cccc(F)c3Cl)CCOCC2)cn1 (centres unmarked) [2-chloro-3-fluoro-N-[1-[4-(2-methylpyrimidin-5-yl)tetrahydropyran-4-yl]ethyl]benzamide]
17	CC(CNC(=O)c1ccccc1Cl)(CC1CC1)c1cnc(C(F)(F)F)nc1 (single isomer, unassigned; (-)) [(−)2-chloro-N-[3-cyclopropyl-2-methyl-2-[2-(trifluoromethyl)] [(−)2-chloro-N-[3-cyclopropyl-2-methyl-2-[2-(trifluoromethyl)pyrimidin-5-yl]propyl]benzamide]
1.6	O=C(NCC(CC1(C(F)(F)F)CC1)c1cnc(C(F)(F)F)nc1)c1cccc(Cl)c1Cl (single isomer, unassigned; (+)) [(+)2,3-dichloro-N-[3-[1-(trifluoromethyl)cyclopropyl]-2-[2-(] [(+)2,3-dichloro-N-[3-[1-(trifluoromethyl)cyclopropyl]-2-[2-(trifluoromethyl)pyrimidin-5-yl]propyl]benzamide]
9.1	Cc1ccc(F)cc1C(=O)NCC1(c2ccc(C(F)(F)F)nc2)CCC(F)(F)CC1 [N-((4,4-difluoro-1-(6-(trifluoromethyl)pyridin-3-yl)cyclohexyl)methyl)-5-fluoro-2-methylbenzamide]
5.3	O=C(NCC1(c2ccc(F)nc2)CCC(F)(F)CC1)c1cccc(F)c1Cl [2-chloro-N-((4,4-difluoro-1-(6-fluoropyridin-3-yl)cyclohexyl)methyl)-3-fluorobenzamide]
1.6	O=C(NCC(c1ccc(Cl)cc1)C1CCOCC1)c1cccc(Cl)c1Cl (centres unmarked) [2,3-dichloro-N-[2-(4-chlorophenyl)-2-tetrahydropyran-4-yl-ethyl]benzamide]
8.1	CS(=O)(=O)c1ccc(Cl)c(C(=O)NCC(CC2CC2)c2ccc(C(F)(F)F)nc2)c1 (single isomer, unassigned; (-)) [(−)2-chloro-N-[3-cyclopropyl-2-[6-(trifluoromethyl)-3-pyridy] [(−)2-chloro-N-[3-cyclopropyl-2-[6-(trifluoromethyl)-3-pyridyl]propyl]-5-methylsulfonyl-benzamide]
1.2	O=C(NCC1(c2ccc(C(F)(F)F)nc2)CCC(F)(F)CC1)c1cccc(Cl)c1Cl [2,3-dichloro-N-((4,4-difluoro-1-(6-(trifluoromethyl)pyridin-3-yl)cyclohexyl)methyl)benzamide]
16	O=C(NCC(CC1(C(F)(F)F)CC1)c1ccc(C(F)(F)F)nc1)c1cccc(F)c1Cl (single isomer, unassigned; (-)) [(−)2-chloro-3-fluoro-N-[3-[1-(trifluoromethyl)cyclopropyl]-2] [(−)2-chloro-3-fluoro-N-[3-[1-(trifluoromethyl)cyclopropyl]-2-[6-(trifluoromethyl)-3-pyridyl]propyl]benzamide]
2.9	O=C(NCC(CC1CC1)c1ccc(C(F)(F)F)nc1)c1cccc(F)c1Cl (stereo not drawn) [2(−)-chloro-N-[3-cyclopropyl-2-[6-(trifluoromethyl)-3-pyridy] [2(−)-chloro-N-[3-cyclopropyl-2-[6-(trifluoromethyl)-3-pyridyl]propyl]-3-fluoro-benzamide]
4.3	O=C(NCC(c1cnc(C(F)(F)F)nc1)C1CCC(F)(F)CC1)c1cccc(Cl)c1Cl (single isomer, unassigned; (-)) [(−)2,3-dichloro-N-[2-(4,4-difluorocyclohexyl)-2-[2-(trifluor] [(−)2,3-dichloro-N-[2-(4,4-difluorocyclohexyl)-2-[2-(trifluoromethyl)pyrimidin-5-yl]ethyl]benzamide]
0.82	O=C(NCC(CC1CC1)c1cnc(C(F)(F)F)nc1)c1c(Cl)cccc1Cl (single isomer, unassigned; (-)) [(−)2,6-dichloro-N-[3-cyclopropyl-2-[2-(trifluoromethyl)pyrim] [(−)2,6-dichloro-N-[3-cyclopropyl-2-[2-(trifluoromethyl)pyrimidin-5-yl]propyl]benzamide]

Same assay, conditions: listed as (+)2-chloro-N-[3-cyclopropyl-2-(6-fluoro-3-pyridyl)propyl]benzamide

IC50 [nM]	SMILES
510	O=C(NCC(CC1CC1)c1ccc(F)nc1)c1ccccc1Cl (single isomer, unassigned; (+)) [Example 4w, (+)-2-chloro-N-(3-cyclopropyl-2-(6-fluoropyridin-3-A)propyl)benzamide]

Same assay, conditions: listed as (+)2-chloro-N-[3-cyclopropyl-2-[6-(trifluoromethyl)-3-pyridyl]propyl]benzamide

IC50 [nM]	SMILES
63	O=C(NCC(CC1CC1)c1ccc(C(F)(F)F)nc1)c1ccccc1Cl (single isomer, unassigned; (+)) [Example 4a, (+)-2-Chloro-N-[3-cyclopropyl-2-[6-(tiifluoromethyl)-3-pyridyl]propyl]benzamide]
